Assay [1] addresses T1, human vanin-1 (Homo sapiens (Human), UniProt O95497). Kind of assay: Human Vanin-1 Enzyme Assay 1. It counts as biochemical. Particulars: 25 pM human vanin-1, 50 uM pantetheine 7-amino-4-trifluoromethylcoumarin, 30 min preincubation, 60 min. As to the method: Human Vanin-1 Enzyme Assay 1.
(§1) The in vitro assay measures enzymatic cleavage of the fluorescently-labeled vanin substrate, pantetheine 7-amino-4-trifluoromethylcoumarin, by human vanin-1.
(§2) The vanin-1 protein was prepared in-house from a construct expressing the extracellular domain of human vanin-1 (GenBank ID NM_004666) preceded N-terminally by the honey bee melittin signal peptide, a GSG linker sequence, a His6X tag and a FLAG tag. The secreted, soluble enzyme was purified from the conditioned medium from a CHO cell line stably expressing the resulting protein. Enzyme purification was performed through sequential Ni NTA and size-exclusion chromatography steps.
The test inhibitors were solubilized in DMSO to a stock concentration of 30 mM. On the day of the assay, dose response plates were prepared by diluting the inhibitors in DMSO at compound concentration 200-fold the final in-assay concentration. Intermediate concentrations were prepared by diluting in DMSO in a four-fold series for a total of 11 data points.
To prepare a working solution of human vanin-1, the enzyme was diluted to 33.3 pM in the assay buffer consisting of 50 mM Tris-HCl pH=8.0, 50 mM KCl, 0.005% Brij-35 and […] cysteamine. To begin the assay 100 nL was transferred from the compound plate to the assay plate. Next, 15 μL of the vanin-1 working solution were transferred to the assay plate. The inhibitor and enzyme were incubated at room temperature for 30 minutes. The enzyme reaction was then initiated by the addition of 5 μL of 200 μM pantetheine 7-amino-4-trifluoromethylcoumarin prepared in assay buffer. The final concentrations in the assay were 25 pM human vanin-1 and 50 uM substrate. The final concentration of DMSO was 0.5%. The assay plates were incubated for 60 minutes and before they were read on a Perkin Elmer EnVision Model 2103 using a 405 nm excitation wavelength and a 510 nm emission wavelength for detection.

Assay [2] deals with T1, human vanin-1. In words: Human Vanin-1 Enzyme Assay 3. Particulars: 2 nM human vanin-1, 10 uM substrate, 15 min. It counts as biochemical. The procedure: Human Vanin-1 Enzyme Assay 3.
as §1, §2
On the day of the assay, dose response plates were prepared by diluting the inhibitors in DMSO at compound concentration 100-fold the final in-assay concentration. Concentration series were prepared by serially diluting in DMSO in a two-fold series for a total of 11 data points. Intermediate compound plates containing compound in 10% DMSO were then created by diluting the compounds 10-fold in assay buffer consisting of 50 mM Tris-HCl pH=8.0, 50 mM KCl, 0.005% Brij-35 and 1.5 mM cysteamine. To begin the assay 3 μL were transferred from the intermediate compound plate to the assay plate.
A working solution of human vanin-1 was prepared by diluting the enzyme stock to 2.5 nM in assay buffer. Next, 24 μL of the vanin-1 working solution were transferred to the assay plate. The enzyme reaction was then initiated by the addition of 3 μL of 100 μM pantetheine 7-amino-4-trifluoromethylcoumarin prepared in 5 uM acetic acid. The final concentrations in the assay were 2 nM human vanin-1 and 10 uM substrate. The final concentration of DMSO was 1%. The assay plates were incubated at room temperature for 15 minutes and before they were read on a Tecan Safire using a 405 nm excitation wavelength and a 505 nm emission wavelength for detection.

The IC50 is the concentration at which inhibition is half-maximal.

T1 sequence (O95497 22-491): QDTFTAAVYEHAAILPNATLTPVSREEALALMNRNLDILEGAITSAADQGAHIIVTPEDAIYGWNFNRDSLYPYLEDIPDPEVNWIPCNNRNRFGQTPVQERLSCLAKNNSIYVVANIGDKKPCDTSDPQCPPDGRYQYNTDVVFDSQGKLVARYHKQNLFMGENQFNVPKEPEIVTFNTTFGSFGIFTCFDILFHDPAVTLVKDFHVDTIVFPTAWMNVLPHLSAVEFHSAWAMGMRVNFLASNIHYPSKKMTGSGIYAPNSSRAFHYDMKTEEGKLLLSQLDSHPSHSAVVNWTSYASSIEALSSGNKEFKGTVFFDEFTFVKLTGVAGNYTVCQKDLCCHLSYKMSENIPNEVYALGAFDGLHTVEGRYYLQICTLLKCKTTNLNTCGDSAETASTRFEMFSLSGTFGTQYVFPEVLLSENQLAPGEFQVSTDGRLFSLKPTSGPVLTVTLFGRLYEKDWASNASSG

On to `COc1ccc(CNc2ncc(C(=O)c3ccc(C#N)cc3)cn2)cc1` [Example 79, 4-({2-[(4-methoxybenzyl)amino]pyrimidin-5-yl}carbonyl) benzonitrile], for which the IC50 came to 15100 nM in assay [1] and 348 nM in assay [2].

`O=C(c1cnc(NCc2ccccc2)nc1)c1cc(F)cc(C(F)(F)F)c1` [Example 93, [2-(benzylamino)pyrimidin-5-yl][3-fluoro-5-(trifluoromethyl)phenyl]methanone]: the concentration for half-maximal inhibition (IC50) in assay [1] is 2150 nM; in assay [2], 154 nM.

Turning to `O=C(c1cccc(C(F)(F)F)c1)c1ccc(NCc2ccc(F)cc2F)nn1` [Example 92, {6-[(2,4-difluorobenzyl)amino]pyridazin-3-yl}[3-(trifluoromethyl)phenyl]methanone], the values for the IC50 in assay [1] and in assay [2] were more than 20000 nM and 566 nM, respectively.

Take `O=C(c1cnc(NCc2ccccc2)nc1)c1ccc(F)c(C(F)(F)F)c1` [Example 83, [2-(benzylamino)pyrimidin-5-yl][4-fluoro-3-(trifluoromethyl)phenyl]methanone]: the half-maximal inhibitory concentration (IC50) in assay [1] was found to be 1050 nM; in assay [2] it was 84.4 nM.

As for `O=C(c1cccc(C(F)(F)F)c1)c1ccc(NCc2ccccc2)nn1` [Example 90, [6-(benzylamino)pyridazin-3-yl][3-(trifluoromethyl)phenyl]methanone], the IC50 in assay [1] worked out at 7430 nM; in assay [2], 86.4 nM.

Regarding `O=C(c1ccccc1)c1cnc(NCc2ccccc2F)nc1` [Example 101, {2-[(2-fluorobenzyl)amino]pyrimidin-5-yl}(phenyl) methanone], the IC50 turned out to be 804 nM in assay [1] and 150 nM in assay [2].

Regarding `COc1ccc(CNc2ncc(C(=O)c3ccc(F)c(F)c3)cn2)cc1` [Example 41, (3,4-difluorophenyl){2-[(4-methoxybenzyl)amino]pyrimidin-5-yl}methanone], the values for the IC50 in assay [1] and in assay [2] were 4270 nM and 808 nM, respectively.

Consider `CC(C)(Nc1ncc(C(=O)c2ccc(F)c(F)c2)cn1)c1ccccc1` [Example 44, (3,4-difluorophenyl){2-[(2-phenylpropan-2-yl)amino]pyrimidin-5-yl}methanone], for which the IC50 in assay [1] came out at 508 nM; in assay [2], 105 nM.

On to `NC(=O)c1ccc(CNc2ncc(C(=O)c3ccc(F)c(F)c3)cn2)cc1` [Example 43, 4-({[5-(3,4-difluorobenzoyl)pyrimidin-2-yl]amino}methyl) benzamide], for which the IC50 was determined as 2220 nM in assay [1] and 490 nM in assay [2].

As for `NC(=O)c1ccc(CNc2ncc(C(=O)c3ccccc3)cn2)cn1` [Example 107, 5-{[(5-benzoylpyrimidin-2-yl)amino]methyl} pyridine-2-carboxamide], the IC50 was 906 nM in assay [1] and 751 nM in assay [2].

With `COc1ccc(CNc2ccc(C(=O)c3cccc(C(F)(F)F)c3)nn2)cc1` [Example 88, {6-[(4-methoxybenzyl)amino]pyridazin-3-yl}[3-(trifluoromethyl)phenyl]methanone], the IC50 in assay [1] was determined as 18600 nM; in assay [2], 9.3 nM.

Consider `Cc1cccc(C(=O)c2cnc(NCc3ccc(C#N)cc3)nc2)c1` [Example 42, 4-({[5-(3-methylbenzoyl)pyrimidin-2-yl]amino}methyl) benzonitrile], for which the IC50 in assay [1] amounted to 1060 nM; in assay [2], 709 nM.

On to `N#Cc1ccc(C(=O)c2cnc(NCc3ccc(F)cc3)nc2)cc1` [Example 78, 4-({2-[(4-fluorobenzyl)amino]pyrimidin-5-yl}carbonyl) benzonitrile], for which the IC50 is more than 20000 nM in assay [1] and 687 nM in assay [2].

Turning to `O=C(c1cnc(OCc2ccc(F)cc2F)nc1)c1cccc(C(F)(F)F)c1` [Example 156, {2-[(2,4-difluorobenzyl)oxy]pyrimidin-5-yl}[3-(trifluoromethyl)phenyl]methanone], the IC50 in assay [1] was more than 20000 nM; in assay [2], more than 1130 nM.

On to `O=C(c1cnc(NCc2cccnc2)nc1)c1ccc(F)c(F)c1` [Example 22, (3,4-difluorophenyl){2-[(pyridin-3-ylmethyl)amino]pyrimidin-5-yl}methanone], for which the IC50 was 93.3 nM in assay [1] and 43.7 nM in assay [2].

These data come from patent US10308615B2, “Heterocyclic compounds as inhibitors of Vanin-1 enzyme” (Pfizer Inc., priority 2015, dated 2019).
